According to US12691096B2, “Drug-controlled systems and uses thereof” (TRUSTEES OF BOSTON UNIVERSITY, priority 2020, dated 2026):

Legend:
[1] = target: T1, dNS3 (Hepatitis C virus genotype 1b, UniProt P26663, A1092G/F1173S/K1113A/P1112Q/S1165A); type: cell-based, hepatitis C virus (HCV); details: dNS3-NLuc and CLuc-PMED; HEK293FT lysates; drug added at time of transfection, 48 hours
T1 construct: expressed in transfected cells; host or cells: HEK293FT (read in lysate)
Description: To test this, permutations of dNS3, NS3wT and each peptide variant were fused to split fragments of Renilla luciferase (FIG. 2A).
(§1) Luciferase assay. HEK293FT cells were transfected with split luciferase constructs. In the case of drug pretreatment for dose curve experiments, drug was added at the indicated concentration at the time of transfection. Two days later, the transfected cells were lysed with 1× Ex Luciferase Assay Buffer using the Nano-Glo® Dual-Luciferase® Reporter Assay System (Promega). Immediately after, the samples were treated with an additional volume of 1× Ex Luciferase Assay Buffer with the indicated concentration of drug.
(§2) The samples were then read with a plate reader once per minute measuring luminescence with 500 millisecond exposure time. […] For kinetics analysis, linear regression analysis was performed on the untreated samples and used to normalize the data for the treated samples.

[2] = target: wild-type NS3 (Hepatitis C virus genotype 1b, UniProt P26663, A1092G/F1173S/K1113A/P1112Q); type: cell-based, hepatitis C virus (HCV); details: NS3WT-NLuc and CLuc-PMED; compared with dNS3
Description: as §1, §2

[3] = target: T1, dNS3; type: biochemical, hepatitis C virus (HCV); details: saturating drug concentrations; 3 pM of each drug added at time of lysis
Description: as §1, §2

[4] = target: dNS3-Cre-PHI (Hepatitis C virus genotype 1b, UniProt P26663, A1092G/F1173S/K1113A/P1112Q/S1165A); details: catalytic NS3 S139A mutation (dNS3)
From the text: (§3) For Cre recombinase control in mammalian cells, live cells were gated in the same manner as above and gated for transfection by either a co-transfection marker of pmiRFP670-N1 or inter-plasmatic constitutive expression of iRFP670 under a separate constitutive promoter. Cells were further deemed as GFP positive if their fluorescence intensity was greater than or equal to the top 1% of non-transfected cells. Baseline activation of GFP positive cells was then subtracted using transfection marker only cells as baseline for all measurements.

[5] = target: NS3(TI) with S139A mutation (Hepatitis C virus genotype 1b, UniProt P26663, D1194Y/F1069L/Q1106K/S1148R/S1165A); type: cell-based, hepatitis C virus (HCV); details: among the three drugs tested (grazoprevir, asunaprevir, telaprevir)
From the text: (§4) To accomplish this, it was sought to make orthogonal inducible Cre recombinases.
as §3

[6] = target: telaprevir inducible (TI) NS3 (Hepatitis C virus genotype 1b, UniProt P26663, D1194Y/F1069L/Q1106K/S1148R); type: cell-based, hepatitis C virus (HCV); details: telaprevir (10 pM); flow cytometry 48 hours post-drug addition
From the text: as §4, §3

T1 sequence (P26663 1027-1206 A1092G/P1112Q/K1113A/S1165A/F1173S): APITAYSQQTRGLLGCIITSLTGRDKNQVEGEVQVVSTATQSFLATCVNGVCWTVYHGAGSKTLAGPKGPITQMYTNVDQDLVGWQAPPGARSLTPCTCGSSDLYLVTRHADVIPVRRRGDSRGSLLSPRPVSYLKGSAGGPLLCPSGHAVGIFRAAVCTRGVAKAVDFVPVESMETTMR
Chain of wild-type NS3 (P26663 1027-1206 A1092G/P1112Q/K1113A/F1173S): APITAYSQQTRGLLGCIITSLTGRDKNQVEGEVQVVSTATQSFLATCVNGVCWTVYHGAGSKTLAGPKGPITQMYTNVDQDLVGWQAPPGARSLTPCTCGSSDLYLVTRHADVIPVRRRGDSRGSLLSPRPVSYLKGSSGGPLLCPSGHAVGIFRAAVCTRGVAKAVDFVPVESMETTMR
Chain of NS3(TI) with S139A mutation (P26663 1027-1206 F1069L/A1092G/Q1106K/P1112Q/K1113A/S1148R/S1165A/F1173S/D1194Y): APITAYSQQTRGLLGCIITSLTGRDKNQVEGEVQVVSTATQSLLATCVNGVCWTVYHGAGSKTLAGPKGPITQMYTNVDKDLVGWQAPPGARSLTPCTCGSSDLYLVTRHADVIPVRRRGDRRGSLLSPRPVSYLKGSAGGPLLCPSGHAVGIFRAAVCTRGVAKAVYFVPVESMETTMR
Chain of dNS3-Cre-PHI (P26663 1027-1206 A1092G/P1112Q/K1113A/S1165A/F1173S): as the sequence (P26663 1027-1206 A1092G/P1112Q/K1113A/S1165A/F1173S) above
Chain of telaprevir inducible (TI) NS3 (P26663 1027-1206 F1069L/A1092G/Q1106K/P1112Q/K1113A/S1148R/F1173S/D1194Y): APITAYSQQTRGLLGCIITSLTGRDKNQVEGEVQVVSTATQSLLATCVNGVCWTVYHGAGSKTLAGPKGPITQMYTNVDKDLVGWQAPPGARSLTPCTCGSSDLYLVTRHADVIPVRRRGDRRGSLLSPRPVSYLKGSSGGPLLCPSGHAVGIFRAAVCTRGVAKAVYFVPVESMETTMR

CCC[C@H](NC(=O)[C@@H]1[C@H]2CCC[C@H]2CN1C(=O)[C@@H](NC(=O)[C@@H](NC(=O)c1cnccn1)C1CCCCC1)C(C)(C)C)C(=O)C(=O)NC1CC1 [telaprevir]
Luciferase activity, dose response [1]: significant resistance
Luciferase activity, dose response with wild-type NS3 [2]: effect is reverted
Dissociation of dNS3-PMED complexes (temporal turn-off) [3]: did not dissociate dNS3-PMD complexes well
Effect of NS3 S139A mutation alone on drug induction of Cre [4]: reduce telaprevir sensitivity
Drug sensitivity of NS3(TI) Cre with NS3 S139A mutation [5]: ablates telaprevir sensitivity
Induction of Cre recombination, telaprevir inducible (TI) construct [6]: strongly induced

CC(C)(C)OC(=O)N[C@H]1CCCCC/C=C\[C@@H]2C[C@@]2(C(=O)NS(=O)(=O)C2CC2)NC(=O)[C@@H]2C[C@@H](OC(=O)N3Cc4cccc(F)c4C3)CN2C1=O [danoprevir, Danoprevir]
Luciferase activity, dose response [1]: inhibit luciferase activity in a dose dependent manner
